Legend:
[1] = tested on: HBLAK-derived bladder organoids; experiment: Cell toxicity assay (LDH release); type: cell-based, human; settings: CapFuran 2 mg/ml; equivalent free nitrofurantoin 200 mg/ml as printed; 60 minutes; N=6
Description: A colorimetric […] (LDH) assay kit (Thermo Scientific) was used to measure potential cell damage from CapFuran or nitrofurantoin. The procedure was carried out as directed by the manufacturer. HBLAK-derived bladder organoids were grown for 14 days then exposed to 1000 μl of culture media (control) or 1000 μl of culture media containing CapFuran 1 mg/ml; CapFuran 2 mg/ml; 100 μg/ml unencapsulated nitrofurantoin; 200 μg/ml Nitrofurantoin; 100 μl of 10× lysis buffer (maximum LDH control); or culture medium containing 10% ultra-pure water (to measure spontaneous LDH release). Experiments were carried out in triplicates. All organoids were subsequently incubated for 60 minutes at […] in 5% CO2. After incubation, 50 μl of medium from the apical chamber of each treated organoid was transferred to 3 wells of a flat-bottomed […] (Corning). […] To quantify the amount of LDH released, the 96 well plate was read using a colorimetric sphectrophotometer (Biochrom EZ Read 400) at an absorbance of 492 nm and 650 nm. Microsoft Excel was used to subtract the background reading from the LDH reading before calculating cytotoxicity in % using the following formula: % Cytotoxicity=Treatment associated LDH release−Spontaneous LDH release×100 Maximum LDH activity−Spontaneous LDH release

[2] = tested on: human bladder epithelial cells (HBLAK); experiment: Cellular uptake of cargo, two-dimensional monolayer; type: cell-based; settings: free FITC at 2.5 mg/mL
From the text: Commercially available human bladder epithelial cells (HBLAK, CelINTec), which are a spontaneously immortalised, non-transformed derivative of progenitor cells that retain the ability to differentiate, were supplied in frozen aliquots containing ˜5×10^5 cells at passage 2 and ˜0.5×10^5 at passage 25 respectively. The progenitor cells had been isolated from bladder trigone biopsies from male patients undergoing surgery for benign prostatic hyperplasia. HBLAK cells were used up until passage 40-50.
Thawed cells were seeded (˜300 cell clumps/cm^2) into pre-warmed and equilibrated low-calcium, high-bovine pituitary extract, primary epithelial medium (CnT-Prime, Cell N Tec) in 9 cm polystyrene dishes and incubated at 37° C. in a humidified incubator under 5% CO2. Culture medium was replaced after overnight incubation to remove residual dimethyl sulfoxide (DMSO). Antibiotics were not added to culture medium at any point due to adverse effects on cytodifferentiation, metabolism and morphology. […]
(§1) We performed epi-fluorescence microscopy on an Olympus CX-41 upright microscope, and confocal laser scanning microscopy on Leica SP5 and SP2 microscopes. […] For both still and live imaging, images were processed and analysed using Infinity Capture and Analyze V6.2.0, ImageJ 1.50 h 50 and the Leica Application Suite, Advanced Fluorescence 3.1.0 build 8587 Software.

[3] = tested on: human urothelial organoid model; experiment: Cellular uptake of cargo, three-dimensional bladder organoid; type: cell-based; settings: two hours of treatment; free FITC at equivalent amount (14 ug/mL)
Description: The three-dimensional bladder organoid model has been described (Horsley et al, 2017, https://doi.org/10.1101/152033). Briefly, organoids were created as follows. In preparation for organotypic culture, previously frozen cells were thawed and expanded on 9 cm culture dishes as above. Once 70-80% confluent, the cells were washed briefly with calcium- and magnesium-free phosphate buffered saline (PBS, Sigma-Aldrich) and incubated at 37° C. in ˜3 ml of pre-warmed Accutase solution for 2-5 min. The dishes were lightly tapped and detached cells re-suspended in 7 ml of warm CnT-Prime. After centrifugation at 200×g for 5 min, the supernatant was removed and the pellet re-suspended in fresh CnT-Prime. This cell suspension was counted whilst allowing the cells to equilibrate for 3 min at room temperature. […]
The 3D culture inserts were incubated for 3-5 days until 100% confluent. Confluency was determined through the fluorescent staining of 1 insert and visualisation under epi-fluorescence microscopy (see section below). […]
as §1

Molecule | Cytotoxicity (LDH release), mean [1] | FITC staining of cells by free diffusion [2] | FITC penetration through cell layers [3]
O=C1CN(/N=C/c2ccc([N+](=O)[O-])o2)C(=O)N1 [nitrofurantoin] | 6.60% | – | –
fluorescein isothiocyanate [free FITC] | – | faint green staining to all cells | negligible penetration
